# According to article PMC11087982, “In vitro and in vivo activities of a trithiolato-diRuthenium complex conjugated with sulfadoxine against the apicomplexan parasite Toxoplasma gondii” (International Journal for Parasitology: Drugs and Drug …, 2024):
# “Also recorded” adds a separate entry of the source.
# What was measured:
# T. gondii ShSp1 oocysts = assay: In vivo efficacy in CD1 mice orally infected with T. gondii ShSp1 oocysts (qPCR parasite load)
# Excerpt: Female CD1 mice, 6 weeks of age, were purchased from Charles River (Sulzberg, Germany). They were housed in temperature-controlled animal facilities and were randomly distributed into 4 groups (8 mice/group, with 4 mice per cage), and food and water ad libitum. At the age of 8 weeks, mice were experimentally infected by peroral application of 120 TgShSp1 (type II) oocysts ([Imhof et al., 2021]). Placebo and RU-SDX treatments were started at 3 days p. i., with mice being treated orally by gavage. Group 1 (placebo control) received 100 μl corn oil supplemented with 10% DMSO, while group 2 (treatment group) was administered 5 mg/kg RU-SDX solubilized in 100 μl corn oil/10 % DMSO. These treatments were repeated on days 5, 7, 9 and 11 p. i. During the entire experiment mice were monitored for potential health issues at least twice per day. All mice were sacrificed at 30 days p. i. Brain, eyes, heart, and liver were collected and stored at −20 °C for subsequent DNA extraction and quantification of T. gondii load by quantitative PCR (qPCR).
# Genomic DNA was extracted from the collected samples using the NucleoSpin DNA RapidLyze Kit (Macherey-Nagel, Oensingen, Switzerland) and DNA concentrations were quantified by the QuantiFluor double-stranded DNA (dsDNA) system (Promega, Madison, WI, USA) as previously described ([Imhof et al., 2021]). DNA concentrations were adjusted to 5 ng/μl, and qPCR reactions were performed in a final volume of 10 μl containing 1x SensiFast master mix (Bioline, Meridian Bioscience), 0.5 μM of reverse and forward primers, 0.1 μM of 529rpeQ-P probe, 0.3 mM dUTP, and one unit of heat-labile Uracil DNA Glycosylase (UDG) ([Hänggeli et al., 2022]). Amplification was performed in the Bio-Rad CFX 96 QPCR instRUment (Biorad) using the following thermal profile: (1) initial incubation of 10 min at 42 °C, followed by (2) denaturation step of 5 min at 95 °C and (3) 50 cycles of two-step amplification (10 s at 95 °C and 20 s at 62 °C). For quantification, a standard curve was made based on a 10-fold serial dilution of DNA from T. gondii, equivalent to tachyzoite numbers ranging from 1 × 10^4 to 1 per 4 μl. The parasite load was expressed as number of tachyzoites per 20 ng of DNA. Statistical analyses were performed using GraphPad Prism version 5.0 (GraphPad Software, La Jolla, CA, USA). Comparisons of the parasite burdens between groups were conducted with the non-parametric Kruskal-Wallis test, followed by the Mann-Whitney-U test.
# [1] = tested on: T. gondii β-gal tachyzoites; assay: T. gondii β-Gal tachyzoite proliferation in HFF monolayers (β-galactosidase fluorometric assay); type: cell-based, Toxoplasma gondii
# Description: Effects of drugs on the proliferative capacity of T. gondii tachyzoites were investigated using a transgenic T. gondii RH strain constitutively expressing β-Galactosidase (T. gondii β-Gal ([Dc et al., 1997]);). Assays were carried out in 96 well plates in the presence or absence of the different compounds. For the quantification of β-Galactosidase activity, a fluorometric assay was applied as previously described ([Desiatkina et al., 2021]; [Păunescu et al., 2021]).
# [2] = tested on: T. gondii Me49 tachyzoites; assay: Long-term treatment of infected HFF to test static or cidal effect; type: cell-based, Toxoplasma gondii; details: 0.5 μM
# Description: On day 0, the HFF monolayers were infected with 5 × 10^5 T. gondii Me49 tachyzoites. At 4 h post infection (p.i.) the medium was removed, flasks were washed twice with sterile PBS and fresh medium containing either RU-SDX at 0.25 μM or 0.5 μM, or DMSO (0.05%) as a negative control, were added. Treatments were applied during 3 and 6 days and cultures were maintained in normal DMEM complete media and examined light microscopically daily. After drug removal, flasks were also monitored microscopically daily for one week.
structure (smiles),measurement,setting,value
CC(C)(C)c1ccc(C[S-])cc1.CC(C)(C)c1ccc(C[S-])cc1.COc1ncnc(NS(=O)(=O)c2ccc(NC(=O)Cc3ccc([S-])cc3)cc2)c1OC.Cc1ccc(C(C)C)cc1.Cc1ccc(C(C)C)cc1.[Cl-].[Ru+2].[Ru+2] [RU-SDX],cerebral parasite load compared to placebo control group,"T. gondii ShSp1 oocysts; 5 mg/kg oral gavage, 5 treatments from day 3 p.i., brain at 30 days p.i., P = 0.37",did not result in any reduction
same,parasite load in eyes compared to placebo control group,"T. gondii ShSp1 oocysts; 5 mg/kg oral gavage, 5 treatments from day 3 p.i., eyes at 30 days p.i.",significantly reduced
same,parasite load in the heart compared to placebo control group,"T. gondii ShSp1 oocysts; 5 mg/kg oral gavage, 5 treatments from day 3 p.i., heart at 30 days p.i.",significantly reduced
same,toxicity by clinical signs in treated mice,"T. gondii ShSp1 oocysts; 5 mg/kg oral in corn oil/10% DMSO, 5 treatments",not toxic
same,T. gondii proliferation in relation to the non-treated control,[1]; 0.1 μM,77%
same,T. gondii proliferation in relation to the non-treated control,[1]; 1 μM,2%
same,proliferation (% of control ± SD),[1]; 2.5 μM,^∗∗∗0 ± 0%
same,proliferation (% of control ± SD),[1]; 5 μM,^∗∗∗0 ± 0%
same,IC50,[1]; drug treatment applied concomitantly to infection of HFF monolayers,0.112 µM
same,IC50,"[1]; drug treatment initiated 3 h post infection, 95% CI in brackets",0.145 µM
same,IC50,"[1]; drug treatment initiated concomitantly to infection, 95% CI in brackets",0.112 µM
same,IC50,[1]; drug treatment on already infected HFF,0.145 µM
same,IC50,"[1]; tachyzoites grown in HFF monolayers, drug added concomitantly to or after infection",< 0.15 µM
same,parasiticidal or parasitostatic action in vitro,[2]; 3 and 6 days treatment,parasitostatic but not parasiticidal; also recorded: did not act parasiticidal
same,tachyzoite re-emergence after removal of the drug,"[2]; 6 days of continuous treatment, then culture without compound",≤ 4 days
